Assay results reported in ChEMBL document CHEMBL3886996, “6-alkynyl-pyridine derivatives” (2016).

Molecular target: Baculoviral IAP repeat-containing protein 2 (Homo sapiens, UniProt Q13490)
Assay: Binding Assays (DELFIA): BIR3 domains (10 nM) were incubated with SMAC peptide (10 nM) in assay buffer (50 mM Tris, 120 mM NaCl, 0.1% BSA, 1 mM DTT, 0.05% Triton X100) for one hour at room temperature in the presence of inhibitory compounds. The assay mixture was transferred to a streptavidin coated plate and incubated for one hour at room temperature to allow binding of the biotinylated peptide and associated BIR3 domains to the plate. After several washing steps Eu labeled anti-GST antibody (e.g. Perkin Elmer DELFIA Eu-N1-antiGST AD0250) was added to detect BIR3 domain-SMAC peptide interactions according to Perkin Elmer's instructions. Briefly, the antibody was added (dilution 1:5000 in Perkin Elmer DELFIA Assay Buffer 2013-01) and incubated for one hour. After 3 washing steps using Delfia Washing Buffer (Perkin Elmer DELFIA Wash 2013-05), Enhancement Solution (Perkin Elmer Enhancement Asolution 2013-02) was added and incubation continued for 10 minutes.

- IC50: in the range around 2 nM
SMILES: CN[C@@H](C)C(=O)Nc1ccc(-c2c(-c3cccnc3OC)nc3ccccn23)c(C#Cc2ccc3c(C)nccc3c2)n1
